Data as given in patent US12692232B2, “Indole carboxamide compound, preparation therefor and use thereof” (NANJING RUISHUNING MEDICAL TECHNOLOGY CO., LTD., priority 2021, dated 2026).

Tests used:
[1] = tested on: mouse model of focal segmental glomerulosclerosis; assay: Mouse model of focal segmental glomerulosclerosis (adriamycin); format: in vivo; conditions: for serum urea nitrogen level: model 16.08±0.23; for urine protein level: model 547.0±106.3; for glomerular lesions, renal tissue pathology (H&E, PAS, Sirius red stain): FIG. 1; for glomerular lesions, renal tissue pathology (H&E, PAS, Sirius red stain) / body weight compared with the FSGS group: control compound 25 mg/kg, irbesartan 50 mg/kg; for body weight compared with the FSGS group: gavage daily 6 weeks, compound 1-1 10, 25, 50 mg/kg
Description: The method was as follows:
Each mouse in the model group, the treatment groups and the positive control group was injected once into the tail vein with adriamycin at a dose of 8 mg/kg, and each mouse in the control group was injected once into the tail vein with saline at the same dose. The mice in the control group and model group were administered equal amount of saline by gavage for 6 weeks, and the mice in other group were administered corresponding compound in doses by gavage at a fixed time each day for 6 weeks after modelling with adriamycin. The body weights were recorded weekly and urine samples were collected.
Collection of urine samples: animals were placed in separate metabolic cages by group on days 0, 7, 14, 21, 28, 35, and 42 after modelling, with free access to water and no access to food, and urine samples were collected from each group of mice.
Determination of urine protein level using Coomassie brilliant blue (CBB) method: urine protein level was determined by urine protein quantitative test kit (Nanjing Jiancheng Bioengineering Institute). CBB working solution was prepared according to the kit instructions. 0.05 mL of each urine sample was mixed with 3 mL of CBB working solution, the mixture was allowed to stand for 5 min, and the absorbance value of each sample was determined at 595 nm. The urine protein levels samples of each group was calculated according to the protein standardization formula: urine protein level (mg/L)=(measured OD−blank OD)/(standard OD−blank OD)×563 mg/L.
Collection of serum samples: orbital blood from each mouse was collected in an EP tube, placed at 37° C. for 20 minutes, and centrifuged to obtain an upper layer of serum.
Collection of plasma samples: orbital blood from each mouse was collected in an anticoagulation tube, mixed well and stored at 4° C. for later use.
Determination of urea nitrogen level in plasma by diacetyl monoxime method: urea nitrogen level was determined by using blood urea nitrogen (BUN) test kit (Nanjing Jiancheng Bioengineering Institute). According to the kit instructions, 0.05 mL of anticoagulated plasma sample was mixed with 1 mL of oxime solution and 1 mL of acid working solution, and the mixtures were placed in a boiling water bath for 15 minutes. A UV-visible spectrophotometer was used to determine the absorbance values of each tube at a wavelength of 520 nm. Urea nitrogen levels in plasma samples of each group were calculated according to the formula: Urea nitrogen level (mmol/L)=(measured OD value−blank OD value)/(standard OD value−blank OD value)×10 mmol/L.
Collection of kidney tissue samples: kidneys were taken from mice after anesthesia, cut horizontally, and the upper part of the kidneys was embedded in OCT embedding box, sliced with frozen slicer and stored at −20° C.
H&E staining was used to assess pathological glomerular changes, and the procedure was as follows: frozen sections were fixed with 95% ethanol for 2 minutes, hydrated with distilled water, stained with hematoxylin for 3 minutes, washed with distilled water for 3 minutes, differentiated using 1% hydrochloric acid in ethanol for 10 seconds, washed with distilled water for 30 seconds, returned to blue in running water for 5 minutes, washed in distilled water for 30 seconds, stained with eosin for 30 seconds, washed with 75% and 85% ethanol for 20 seconds each, dehydrated rapidly with 95% ethanol for 1 minute, dehydrated with anhydrous ethanol, cleared to transparency in xylene (1 minute×3), and finally sealed with neutral balsam and photographed with a biomicroscope.

[2] = tested on: lipopolysaccharide (LPS)-induced mouse model of sepsis; assay: LPS-induced mouse model of sepsis, cardiopulmonary injury; format: in vivo; conditions: 4 hours after LPS 40 mg/kg; for LVFS: model 15.2 ± 2.8; for LVEF: model 34.3 ± 2.9; for lung coefficient: LPS model 7.24%±0.21%
Description: A lipopolysaccharide (LPS)-induced mouse model of sepsis was used to determine the preventive and therapeutic effect of the compounds of the present invention (as exemplified by compound 1-1 obtained in Example 1) on cardiopulmonary injury caused by sepsis. The method was as follows:
Grouping of animals: 50 male C57BL/6J mice aged 6-8 weeks. The mice were randomly divided into 5 groups of 10 mice each, namely, i) a solvent control group: each animal was administered 0.9% saline; ii) a sepsis model group (LPS group): each animal was injected intraperitoneally with LPS at a dose of 40 mg/kg; iii) a treatment group of medium-dose compound 1-1 of Example (LPS+25 mg/kg of compound 1-1 obtained in Example 1): each animal was administered compound 1-1 by gavage at a dose of 25 mg/kg, followed by intraperitoneal injection of LPS at a dose of 40 mg/kg 30 minutes later; iv) a treatment group of high-dose compound 1-1 of Example 1 (LPS+50 mg/kg of compound 1-1 group obtained in Example 1): each animal was administered compound 1-1 by gavage at a dose of 50 mg/kg, followed by intraperitoneal injection of LPS at a dose of 40 mg/kg 30 minutes later; v) a treatment group of medium-dose indole analogue 3-[(1-methyl-1H-indole-2-carbonyl)amino]propionic acid disclosed in CN2019107285315 (LPS+25 mg/kg of indole analogue 3-[(1-methyl-1H-indole-2-carbonyl)amino]propionic acid disclosed in CN2019107285315): each animal was administered the indole analogue by gavage at a dose of 25 mg/kg, followed by intraperitoneal injection of LPS at a dose of 40 mg/kg 30 minutes later. 4 hours after LPS stimulation, follow-up examinations were performed in each group.
Assessment of cardiac function in mice: 4 animals from each group were used for this assay. Isoflurane was used to maintain proper anesthesia and spontaneous breathing in the mice. The mice were placed in the supine position on a constant temperature pad at 37° C., and the extremities of the mice were connected to four electrodes with conductive paste and fixed on the ultrasonic operating table. The probe was coated with ultrasound coupling agent, and placed in the lower middle part of the left sternum of the mice, and the short-axis M-mode echocardiographic images of the left ventricle adjacent to the sternum were acquired in real time. The dynamic images of 10 consecutive cardiac cycles were acquired using M-mode echocardiography, and the images were stored and analyzed offline. Left ventricular ejection fraction (LVEF) and left ventricular fraction shortening (LVFS) were calculated from left ventricular end diastolic diameter (LVEDD) and left ventricular end systolic diameter (LVESD), respectively, using the formulae: LVEF=(LVEDD^3−LVESD^3)/LVEDD^3×100% and LVFS=(LVEDD−LVESD)/LVEDD×100%.
Determination of lung coefficient: after weighting, the mice were anesthetized with pentobarbital sodium injection, and the whole lung was removed from the thorax, and the tissue around the lung was removed. Surface moisture and blood stains were wiped dry with filter paper, and the wet weight of the lung was weighed. Lung coefficient=lung wet weight […]/mouse body weight (g)×100%.
Histopathological observations: after the mice were anaesthetized with pentobarbital sodium injection, the lungs and ventricles were removed by thoracotomy and fixed in 10% neutral formaldehyde (pH=7.4) for 2 days. Routine paraffin embedding, serial sectioning, H&E staining, neutral balsam sealing and microscopic observation were performed.

SMILES	serum urea nitrogen level reduced compared with the model group ([1]; 25 mg/kg gavage, 6 weeks) [%]	urine protein level reduced compared with the model group ([1]; 25 mg/kg gavage, 6 weeks) [%]	serum urea nitrogen level ([1]; 25 mg/kg gavage, 6 weeks) [mmol/L]	urine protein level ([1]; 25 mg/kg gavage, 6 weeks) [mg/L]	glomerular lesions, renal tissue pathology (H&E, PAS, Sirius red stain) [1]	body weight compared with the FSGS group [1]	LVFS ([2]; medium-dose 25 mg/kg gavage) [%]	LVEF ([2]; medium-dose 25 mg/kg gavage) [%]	lung coefficient ([2]; medium-dose 25 mg/kg)	serum urea nitrogen level vs model group ([1]; 10 mg/kg gavage, 6 weeks)	urine protein level vs model group ([1]; 10 mg/kg gavage, 6 weeks)	serum urea nitrogen level reduced compared with the model group ([1]; 50 mg/kg gavage, 6 weeks) [%]	urine protein level reduced compared with the model group ([1]; 50 mg/kg gavage, 6 weeks) [%]	serum urea nitrogen level ([1]; 50 mg/kg gavage, 6 weeks) [mmol/L]	urine protein level ([1]; 50 mg/kg gavage, 6 weeks) [mg/L]	LVFS ([2]; high-dose 50 mg/kg gavage) [%]	LVEF ([2]; high-dose 50 mg/kg gavage) [%]	lung coefficient ([2]; high-dose 50 mg/kg)
Cn1c(C(=O)NCCC(=O)O)cc2ccccc21 [3-[(1-methyl-1H-indole-2-carbonyl)amino]propionic acid, reference compound]	20.3	22.6	12.82 ± 0.46	423 ± 64.7	glomerular mesangial matrix hyperplasia is reduced compared with the model group, but increased compared with the treatment groups of compound 1-1	increased body weights	22.9±4.0	53.2±3.8	5.48%±0.15%									
CC(=O)OCCCNC(=O)c1c(C=O)c2ccccc2n1C [compound 1-1, propyl 3-[(3-formyl-1-methyl-1H-indole-2-carbonyl)amino]acetate]	27.2	28.6	11.7 ± 0.33	390 ± 74.6	significantly ameliorates glomerular lesions caused by FSGS	increased body weights	24.5±2.6	58.7±4.3	5.16%±0.19%	significantly reduced	significantly reduced	29.8	42.7	11.29 ± 0.40	313 ± 57.6	30.7±2.2	63.8±3.9	4.93%±0.12%
